Where two headings read alike, the source gives them in different places.
Key:
[1] = target: T1, CbFDH (Candida boidinii formate dehydrogenase) ([Candida] boidinii, UniProt O13437); assay: steady-state inhibition kinetics; format: biochemical
T1 construct: gene FDH1; no tag told
T1 sequence (O13437 1-364): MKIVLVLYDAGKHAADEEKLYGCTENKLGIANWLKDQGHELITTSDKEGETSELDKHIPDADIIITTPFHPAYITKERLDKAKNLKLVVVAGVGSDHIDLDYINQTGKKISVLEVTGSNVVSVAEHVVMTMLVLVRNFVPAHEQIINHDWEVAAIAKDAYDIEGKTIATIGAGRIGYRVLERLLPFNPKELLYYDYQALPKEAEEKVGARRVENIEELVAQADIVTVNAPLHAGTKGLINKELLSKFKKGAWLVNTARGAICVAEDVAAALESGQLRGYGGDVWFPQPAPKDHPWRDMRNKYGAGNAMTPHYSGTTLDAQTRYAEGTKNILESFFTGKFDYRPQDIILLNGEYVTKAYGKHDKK
Excerpt: steady-state inhibition kinetics on CbFDH (Candida boidinii formate dehydrogenase)

steady-state kinetics = substrate: O=CO; assay: steady-state kinetics; format: biochemical, [Candida] boidinii; settings: 0.1 M potassium phosphate pH 7.5, 25 °C, co-substrate NAD+
Excerpt: steady-state kinetics on CbFDH (Candida boidinii formate dehydrogenase)

Nc1ncnc2c1ncn2[C@@H]1O[C@H](COP(=O)(O)O)[C@@H](O)[C@H]1O [AMP]
Ki ([1]; read-out: Ki (mM) (AMP)): 1.6 ± 0.1 mM

NC(=O)C1=CN([C@@H]2O[C@H](COP(=O)(O)OP(=O)(O)OC[C@H]3O[C@@H](n4cnc5c(N)ncnc54)[C@H](O)[C@@H]3O)[C@@H](O)[C@H]2O)C=CC1 [NADH]
Ki ([1]; read-out: Ki (mM) (NADH)): 0.03 ± 0.005 mM

B1: CbFDH (Candida boidinii formate dehydrogenase) ([Candida] boidinii) (protein)
chain: T1 sequence (O13437 1-364)
notes: no tag told
Km (steady-state kinetics): 2400 ± 100 µM

Reference: PMC7956174, “Probing the Role of the Conserved Arg174 in Formate Dehydrogenase by Chemical Modification and Site-Directed Mutagenesis” (Molecules, 2021)
